The structures appear in SMILES notation. A value given as a limit tells only on which side of the number the result lay.

For the assay, the target named is T1, human Cereblon WT GST-tagged protein (Homo sapiens, UniProt Q96SW2).
T1 construct: purchased CISBIO 64BDCRBNPEH
T1 sequence (Q96SW2 whole entry): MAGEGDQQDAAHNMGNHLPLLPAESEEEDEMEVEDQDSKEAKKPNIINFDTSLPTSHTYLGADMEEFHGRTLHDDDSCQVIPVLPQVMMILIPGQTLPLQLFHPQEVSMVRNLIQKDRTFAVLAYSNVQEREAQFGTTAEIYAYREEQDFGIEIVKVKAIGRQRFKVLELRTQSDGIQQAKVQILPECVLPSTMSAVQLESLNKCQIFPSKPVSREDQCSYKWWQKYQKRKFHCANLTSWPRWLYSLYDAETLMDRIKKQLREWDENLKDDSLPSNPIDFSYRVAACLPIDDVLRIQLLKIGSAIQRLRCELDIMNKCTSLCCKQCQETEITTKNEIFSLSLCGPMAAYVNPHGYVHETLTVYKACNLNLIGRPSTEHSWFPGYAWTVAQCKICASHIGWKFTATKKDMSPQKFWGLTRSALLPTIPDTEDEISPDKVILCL
As to the kind of experiment: CRBN binding, HTRF CEREBLON BINDING kit. Conditions: CRBN binding, HTRF CEREBLON BINDING kit. In outline: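 Binding inhibition was calculated from the 665/620 nm emission ratios, with blank wells and solvent wells as references. Test compounds competed for GST-tagged human Cereblon WT against a Thalidomide-Re reagent paired with GST Eu antibody. Plates were sealed and held at room temperature for 3 hours before the HTRF read.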
As to `O=C1CCC(c2ccc(CN3C[C@H]4C[C@@H]3CN4c3ccc(-c4cc(F)c5c(c4)C(=O)N(C(C(=O)Nc4nccs4)c4ncn6c4CCC6)C5)cc3)nc2)C(=O)N1` (stereo partly drawn) [GT-07389, 2-(6,7-dihydro-5H-pyrrolo[1,2-c]imidazol-1-yl)-2-(6-(4-((1R,4R)-5-((5-(2,6-dioxopiperidin-3-yl)pyridin-2-yl)methyl)-2,5-diazabicyclo[2.2.1]heptan-2-yl)phenyl)-4-fluoro-1-oxoisoindolin-2-yl)-N-(thiazol-2-yl)acetamide], the IC50 was under 0.5 µM.
The value for `O=C1CCC(c2cc(CN3C[C@H]4C[C@@H]3CN4c3ccc(-c4cc(F)c5c(c4)C(=O)N(C(C(=O)Nc4nccs4)c4ncn6c4CCC6)C5)cc3)ccn2)C(=O)N1` (stereo partly drawn) [GT-07390, 2-(6,7-dihydro-5H-pyrrolo[1,2-c]imidazol-1-yl)-2-(6-(4-((1R,4R)-5-((2-(2,6-dioxopiperidin-3-yl)pyridin-4-yl)methyl)-2,5-diazabicyclo[2.2.1]heptan-2-yl)phenyl)-4-fluoro-1-oxoisoindolin-2-yl)-N-(thiazol-2-yl)acetamide] was 0.5 to 1 µM; that for `O=C1CCC(c2cncc(CN3C[C@H]4C[C@@H]3CN4c3ccc(-c4cc(F)c5c(c4)C(=O)N(C(C(=O)Nc4nccs4)c4ncn6c4CCC6)C5)cc3)c2)C(=O)N1` (stereo partly drawn) [GT-07391, 2-(6,7-dihydro-5H-pyrrolo[1,2-c]imidazol-1-yl)-2-(6-(4-((1R,4R)-5-((5-(2,6-dioxopiperidin-3-yl)pyridin-3-yl)methyl)-2,5-diazabicyclo[2.2.1]heptan-2-yl)phenyl)-4-fluoro-1-oxoisoindolin-2-yl)-N-(thiazol-2-yl)acetamide] was under 0.5 µM; that for `O=C1CCC(c2cc(CN3CCN(c4ccc(-c5cc(F)c6c(c5)C(=O)N(C(C(=O)Nc5nccs5)c5ncn7c5CCC7)C6)cc4)CC3)ccn2)C(=O)N1` (centres unmarked) [GT-07392, 2-(6,7-dihydro-5H-pyrrolo[1,2-c]imidazol-1-yl)-2-(6-(4-(4-((2-(2,6-dioxopiperidin-3-yl)pyridin-4-yl)methyl)piperazin-1-yl)phenyl)-4-fluoro-1-oxoisoindolin-2-yl)-N-(thiazol-2-yl)acetamide] was 1 to 1.9 µM.
The compound `CN(Cc1cncc(C2CCC(=O)NC2=O)c1)C1CCN(c2ccc(-c3cc(F)c4c(c3)C(=O)N(C(C(=O)Nc3nccs3)c3ncn5c3CCC5)C4)cc2)CC1` (centres unmarked) [GT-07393, 2-(6,7-dihydro-5H-pyrrolo[1,2-c]imidazol-1-yl)-2-(6-(4-(4-(((5-(2,6-dioxopiperidin-3-yl)pyridin-3-yl)methyl)(methyl)amino)piperidin-1-yl)phenyl)-4-fluoro-1-oxoisoindolin-2-yl)-N-(thiazol-2-yl)acetamide] yielded an IC50 of under 0.5 µM.
The value for `O=C1CCC(c2cncc(CN3CCN(c4ccc(-c5cc(F)c6c(c5)C(=O)N(C(C(=O)Nc5nccs5)c5ncn7c5CCC7)C6)cc4)CC3)c2)C(=O)N1` (centres unmarked) [GT-07472, 2-(6,7-dihydro-5H-pyrrolo[1,2-c]imidazol-1-yl)-2-(6-(4-(4-((5-(2,6-dioxopiperidin-3-yl)pyridin-3-yl)methyl)piperazin-1-yl)phenyl)-4-fluoro-1-oxoisoindolin-2-yl)-N-(thiazol-2-yl)acetamide] was under 0.5 µM; that for `CN(Cc1ccnc(C2CCC(=O)NC2=O)c1)C1CCN(c2ccc(-c3cc(F)c4c(c3)C(=O)N(C(C(=O)Nc3nccs3)c3ncn5c3CCC5)C4)cc2)CC1` (centres unmarked) [GT-07473, 2-(6,7-dihydro-5H-pyrrolo[1,2-c]imidazol-1-yl)-2-(6-(4-(4-(((2-(2,6-dioxopiperidin-3-yl)pyridin-4-yl)methyl)(methyl)amino)piperidin-1-yl)phenyl)-4-fluoro-1-oxoisoindolin-2-yl)-N-(thiazol-2-yl)acetamide] was 0.5 to 1 µM; that for `O=C1CCC(c2cnc(F)c(CN3CCN(c4ccc(-c5cc(F)c6c(c5)C(=O)N(C(C(=O)Nc5nccs5)c5ncn7c5CCC7)C6)cc4)CC3)c2)C(=O)N1` (centres unmarked) [GT-07490, 2-(6,7-dihydro-5H-pyrrolo[1,2-c]imidazol-1-yl)-2-(6-(4-(4-((5-(2,6-dioxopiperidin-3-yl)-2-fluoropyridin-3-yl)methyl)piperazin-1-yl)phenyl)-4-fluoro-1-oxoisoindolin-2-yl)-N-(thiazol-2-yl)acetamide] was under 0.5 µM.
In the case of `CN(Cc1cc(C2CCC(=O)NC2=O)cnc1F)C1CCN(c2ccc(-c3cc(F)c4c(c3)C(=O)N(C(C(=O)Nc3nccs3)c3ncn5c3CCC5)C4)cc2)CC1` (centres unmarked) [GT-07560, 2-(6,7-dihydro-5H-pyrrolo[1,2-c]imidazol-1-yl)-2-(6-(4-(4-(((5-(2,6-dioxopiperidin-3-yl)-2-fluoropyridin-3-yl)methyl)(methyl)amino)piperidin-1-yl)phenyl)-4-fluoro-1-oxoisoindolin-2-yl)-N-(thiazol-2-yl)acetamide], the IC50 was under 0.5 µM.
With `O=C1CCC(c2cnc(F)c(CN3C[C@H]4C[C@@H]3CN4c3ccc(-c4cc(F)c5c(c4)C(=O)N(C(C(=O)Nc4nccs4)c4ncn6c4CCC6)C5)cc3)c2)C(=O)N1` (stereo partly drawn) [GT-07562, 2-(6,7-dihydro-5H-pyrrolo[1,2-c]imidazol-1-yl)-2-(6-(4-((1R,4R)-5-((5-(2,6-dioxopiperidin-3-yl)-2-fluoropyridin-3-yl)methyl)-2,5-diazabicyclo[2.2.1]heptan-2-yl)phenyl)-4-fluoro-1-oxoisoindolin-2-yl)-N-(thiazol-2-yl)acetamide] the figure was under 0.5 µM.
The compound `Cc1cc(Nc2ncc(Cl)c(Nc3ccccc3S(=O)(=O)C(C)C)n2)c(OC(C)C)cc1C1CCN(Cc2cccc(N3CCC(=O)NC3=O)c2)CC1` [GT-07593, 1-(3-((4-(4-((5-chloro-4-((2-(isopropylsulfonyl)phenyl)amino)pyrimidin-2-yl)amino)-5-isopropoxy-2-methylphenyl)piperidin-1-yl)methyl)phenyl)dihydropyrimidine-2,4(1H,3H)-dione] returned an IC50 of 0.5 to 1 µM.
The value for `Cc1cc(Nc2ncc(Cl)c(Nc3ccccc3S(=O)(=O)C(C)C)n2)c(OC(C)C)cc1C1CCN(Cc2cc(C3CCC(=O)NC3=O)cnc2F)CC1` (centres unmarked) [GT-07598, 3-(5-((4-(4-((5-chloro-4-((2-(isopropylsulfonyl)phenyl)amino)pyrimidin-2-yl)amino)-5-isopropoxy-2-methylphenyl)piperidin-1-yl)methyl)-6-fluoropyridin-3-yl)piperidine-2,6-dione] was 0.5 to 1 µM; that for `Cc1cc(Nc2ncc(Cl)c(Nc3ccccc3S(=O)(=O)C(C)C)n2)c(OC(C)C)cc1C1CCN(Cc2cncc(C3CCC(=O)NC3=O)c2)CC1` (centres unmarked) [GT-07601, 3-(5-((4-(4-((5-chloro-4-((2-(isopropylsulfonyl)phenyl)amino)pyrimidin-2-yl)amino)-5-isopropoxy-2-methylphenyl)piperidin-1-yl)methyl)pyridin-3-yl)piperidine-2,6-dione] was 1 to 1.9 µM.
The value for `COc1cc(N2CCC(N3CCN(Cc4ccc(C5CCC(=O)NC5=O)cc4)CC3)CC2)ccc1Nc1ncc(Cl)c(Nc2ccccc2P(C)(C)=O)n1` (centres unmarked) [GT-07602, 3-(4-((4-(1-(4-((5-chloro-4-((2-(dimethylphosphoryl)phenyl)amino)pyrimidin-2-yl)amino)-3-methoxyphenyl)piperidin-4-yl)piperazin-1-yl)methyl)phenyl)piperidine-2,6-dione] was under 0.5 µM.

(Values after patent publication US20260274829A1, “NEW E3 UBIQUITIN LIGASE LIGAND, PROTEIN DEGRADATION AGENT AND USE THEREOF” (GLUETACS THERAPEUTICS (SHANGHAI) CO., LTD., priority 2023, published 2026).)
